Measured values taken from US9949479B2 (priority 2015, dated 2018).
Where “and” joins values, the source holds several entries; their conditions need not be identical. Identical values can stand only once. Like-named read-outs stand apart in the source and are kept apart here.

Assays:
powdery mildew [1] = assay type: in vivo
leaf blight [2] = assay type: in vivo; conditions: Serial 6: preparation 100 g/mu; jinggangmycin 0, metconazole 20 g ai./mu
[3] = assay type: in vivo, wheat
leaf blight [4] = assay type: in vivo
leaf rust fungus = assay type: in vivo; conditions: seed treatment; dose as in E133
rust [5] = assay type: in vivo
rust [6] = assay type: in vivo; remark: listed apart in the source
[7] = set-up: species or system wheat; conditions: in vivo
rust [8] = assay type: in vivo; conditions: Serial 6: preparation 100 g/mu; jinggangmycin 0, metconazole 20 g ai./mu
[9] = test system: DON toxin biosynthesis of carbendazim-resistant fusarium asiaticum; test: microbe, parasite or virus in culture; assay type: cell-based
Fusarium asiaticum = test: microbe, parasite or virus in culture; assay type: cell-based
powdery mildew [10] = assay type: in vivo; conditions: dose as in E154
wheat scab = assay type: in vivo, Fusarium spp.
[11] = Serial 10: preparation 80 g/mu, metconazole 16 g ai./mu alone
[12] = Serial 11: preparation 40 g/mu, metconazole 8 g ai./mu alone
[13] = Serial 12: preparation 20 g/mu, metconazole 4 g ai./mu alone
[14] = Serial 21: metconazole 20 g ai./mu alone
[15] = Serial 22: metconazole 18 g ai./mu alone
[16] = Serial 23: metconazole 16 g ai./mu alone
[17] = Serial 24: metconazole 10 g ai./mu alone
[18] = Serial 25: metconazole 9 g ai./mu alone
[19] = Serial 26: metconazole 8 g ai./mu alone
[20] = Serial 27: metconazole 6 g ai./mu alone
[21] = Serial 28: metconazole 3 g ai./mu alone
[22] = Fusarium asiaticum, read-out: Growth Inhibition Rate F.a

**Q.** With `CC1(C)CCC(Cc2ccc(Cl)cc2)C1(O)Cn1cncn1` (centres unmarked) [Metconazole] as the compound, how does the “Disease Index Prevention Effect % Powdery Mildew” value (powdery mildew [1]; [11]) read?
**A.** Its value is 75.4%.

**Q.** And the “Disease Index Prevention Effect % Powdery Mildew” value (powdery mildew [1]; [12])?
**A.** Its value is 69.2%.

**Q.** What about the “Disease Index Prevention Effect % Powdery Mildew” value (powdery mildew [1]; [13]) of the same compound?
**A.** Its value is 60.6%.

**Q.** And the “Disease Index Prevention Effect % Leaf Blight” value (leaf blight [2])?
**A.** The value was 84.6%.

**Q.** What about the “Grain Toxin Content (mg of DON/Kg of grain)” value (shortened to “Grain Toxin Content”) [3, 14] of the same compound?
**A.** Its value is 1.11 mg of DON/Kg of grain.

**Q.** And the “Rate of Decrease in Toxin Content in Grains (%)” value (“Rate of Decrease … (%)” below) [3, 14]?
**A.** Its value is 82.8%.

**Q.** What about the “Grain Toxin Content” value [3, 15] of the same compound?
**A.** Its value is 0.99 mg of DON/Kg of grain.

**Q.** What about the “Rate of Decrease … (%)” value [3, 15] of the same compound?
**A.** Its value is 84.7%.

**Q.** And the “Grain Toxin Content” value [3, 16]?
**A.** The value was 1.08 mg of DON/Kg of grain.

**Q.** And the “Rate of Decrease … (%)” value [3, 16]?
**A.** The value was 83.3%.

**Q.** And the “Grain Toxin Content” value [3, 17]?
**A.** The value was 1.34 mg of DON/Kg of grain.

**Q.** And the “Rate of Decrease … (%)” value [3, 17]?
**A.** The value was 79.3%.

**Q.** What about the “Grain Toxin Content” value [3, 18] of the same compound?
**A.** Its value is 1.56 mg of DON/Kg of grain.

**Q.** What about the “Rate of Decrease … (%)” value [3, 18] of the same compound?
**A.** The value was 75.9%.

**Q.** And the “Grain Toxin Content” value [3, 19]?
**A.** Its value is 1.61 mg of DON/Kg of grain.

**Q.** And the “Rate of Decrease … (%)” value [3, 19]?
**A.** The value was 75.1%.

**Q.** What about the “Grain Toxin Content” value [3, 20] of the same compound?
**A.** The value was 1.89 mg of DON/Kg of grain.

**Q.** What about the “Rate of Decrease … (%)” value [3, 20] of the same compound?
**A.** Its value is 70.7%.

**Q.** And the “Grain Toxin Content” value [3, 21]?
**A.** Its value is 3.22 mg of DON/Kg of grain.

**Q.** What about the “Rate of Decrease … (%)” value [3, 21] of the same compound?
**A.** Its value is 50.2%.

**Q.** What about the “Disease Index Prevention Effect % Leaf Blight” value (leaf blight [4]; Serial 9: preparation 100 g/mu, metconazole 20 g ai./mu alone) of the same compound?
**A.** The value was 72.8%.

**Q.** And the “Disease Index Prevention Effect % Leaf Blight” value (leaf blight [4]; [11])?
**A.** Its value is 70.6%.

**Q.** What about the “Disease Index Prevention Effect % Leaf Blight” value (leaf blight [4]; [12]) of the same compound?
**A.** Its value is 68.3%.

**Q.** And the “Disease Index Prevention Effect % Leaf Blight” value (leaf blight [4]; [13])?
**A.** The value was 50.8%.

**Q.** And the “Incidence Prevention Effect % Rust” value (leaf rust fungus)?
**A.** Its value is 85.5% and 82.0% and 71.0% and 54.5%.

**Q.** What about the “Disease Index Prevention Effect % Rust” value (rust [5]; [14]) of the same compound?
**A.** Its value is 91.2%.

**Q.** And the “Disease Index Prevention Effect % Rust” value (rust [5]; [15])?
**A.** Its value is 88.4%.

**Q.** And the “Disease Index Prevention Effect % Rust” value (rust [5]; [16])?
**A.** Its value is 85.6%.

**Q.** And the “Disease Index Prevention Effect % Rust” value (rust [5]; [17])?
**A.** The value was 82.1%.

**Q.** And the “Disease Index Prevention Effect % Rust” value (rust [5]; [18])?
**A.** Its value is 82.4%.

**Q.** What about the “Disease Index Prevention Effect % Rust” value (rust [5]; [19]) of the same compound?
**A.** The value was 79.4%.

**Q.** What about the “Disease Index Prevention Effect % Rust” value (rust [5]; [20]) of the same compound?
**A.** Its value is 72.6%.

**Q.** And the “Disease Index Prevention Effect % Rust” value (rust [5]; [21])?
**A.** Its value is 30.2%.

**Q.** What about the “Disease Index Prevention Effect % Rust” value (rust [6]; Serial 8: preparation 50 g/mu, metconazole 10 g ai./mu alone) of the same compound?
**A.** Its value is 84.4%.

**Q.** And the “Disease Index Prevention Effect % Rust” value (rust [6]; Serial 9: preparation 37.5 g/mu, metconazole 7.5 g ai./mu alone)?
**A.** Its value is 77.3%.

**Q.** And the “Disease Index Prevention Effect % Rust” value (rust [6]; Serial 10: preparation 15 g/mu, metconazole 3 g ai./mu alone)?
**A.** Its value is 70.6%.

**Q.** And the “Thousand Kernel Weight” value [7]?
**A.** Its value is 42.8 g and 41.8 g and 42.0 g and 39.2 g.

**Q.** What about the “Disease Index Prevention Effect % Rust” value (rust [8]) of the same compound?
**A.** Its value is 100%.

**Q.** And the “DON Biosynthesis Inhibition Rate” value [9]?
**A.** The value was 0.66% and −0.34%.

**Q.** And the “Toxin Production Capability” value [9]?
**A.** Its value is 87.42 μgDON/g by dry weight of hyphae and 52.50 μgDON/g by dry weight of hyphae.

**Q.** And the ED50 (Fusarium asiaticum)?
**A.** Its ED50 is 0.114 µg/mL and 0.112 µg/mL and 0.116 µg/mL.

**Q.** And the inhibition at 0.0625 µg/mL (Fusarium asiaticum; [22])?
**A.** The inhibition at 0.0625 µg/mL was 30.7%.

**Q.** And the inhibition at 0.125 µg/mL (Fusarium asiaticum; [22])?
**A.** Its inhibition at 0.125 µg/mL is 58.6%.

**Q.** And the inhibition at 0.25 µg/mL (Fusarium asiaticum; [22])?
**A.** The inhibition at 0.25 µg/mL was 75.6%.

**Q.** And the inhibition at 0.5 µg/mL (Fusarium asiaticum; [22])?
**A.** Its inhibition at 0.5 µg/mL is 89.2%.

**Q.** What about the inhibition at 1 µg/mL (Fusarium asiaticum; [22]) of the same compound?
**A.** The inhibition at 1 µg/mL was 95.9%.

**Q.** And the “Disease Index Prevention Effect % Powdery Mildew” value (powdery mildew [10])?
**A.** Its value is 52.6% and 65.3% and 71.8% and 82.2%.

**Q.** What about the “Disease Index Prevention Effect % Head Blight” value (wheat scab; Serial 10: preparation 30 g/mu, metconazole 6 g ai./mu alone) of the same compound?
**A.** Its value is 52.3%.

**Q.** What about the “Disease Index Prevention Effect % Head Blight” value (wheat scab; Serial 11: preparation 22.5 g/mu, metconazole 4.5 g ai./mu alone) of the same compound?
**A.** The value was 49.6%.

**Q.** What about the “Disease Index Prevention Effect % Head Blight” value (wheat scab; Serial 12: preparation 15 g/mu, metconazole 3 g ai./mu alone) of the same compound?
**A.** Its value is 28.6%.
